Data from article PMC7170861, “The TIPE Molecular Pilot That Directs Lymphocyte Migration in Health and Inflammation” (Scientific Reports, 2020).

What was measured:
Assay in all cases: SPR, lipid vesicles on L1 chip, steady-state fit
Conditions in all cases: 10% (mole/mole) lipid in DOPC vesicles; HBS pH 7.4; 25 °C
GRP1-PH = molecular target: T1, GRP1-PH
T1 construct: gene CYTH3; N-terminal 6His-SUMO tag cleaved off; E. coli BL21(DE3)
Excerpt: SPR, lipid vesicles on L1 chip, steady-state fit on GRP1-PH | Purified PLCδ-PH and GRP1-PH domains were used as positive controls

TNFAIP8 = molecular target: T2, TNFAIP8 (Mus musculus, UniProt Q921Z5); type: binding
T2 construct: isoform 1; pET-SUMO, N-terminal 6His-SUMO tag cleaved off by SUMO protease; E. coli BL21(DE3); untagged native protein
T2 sequence (Q921Z5 1-198): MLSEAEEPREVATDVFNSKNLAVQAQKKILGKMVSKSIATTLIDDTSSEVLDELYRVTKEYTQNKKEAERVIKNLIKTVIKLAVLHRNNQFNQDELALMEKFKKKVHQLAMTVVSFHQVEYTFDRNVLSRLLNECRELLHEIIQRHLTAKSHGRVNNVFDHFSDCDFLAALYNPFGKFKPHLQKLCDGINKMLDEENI

PLCδ-PH = molecular target: T3, PLCδ-PH
T3 construct: gene PLCD1; N-terminal 6His-SUMO tag cleaved off; E. coli BL21(DE3)
Excerpt: SPR, lipid vesicles on L1 chip, steady-state fit on PLCδ-PH | Purified PLCδ-PH and GRP1-PH domains were used as positive controls

Kd (GRP1-PH) [µM]	Kd (TNFAIP8) [µM]	Kd (PLCδ-PH) [µM]	Substance
0.98 ± 0.69	4.06		PtdIns(3,4,5)P3
	3.16	2.1 ± 1.55	PtdIns(4,5)P2
